Laboratory results reported in patent publication US20220386608A1, “INSECTICIDAL MIXTURES OF BIFENTHRIN AND CHLORANTRANILIPROLE” (priority 2019, published 2022).

How the values were obtained:
Type in all cases: in vivo
[1] = test system: H. armigera; assay: Example 5B, protocol B: mortality on treated leaves, synergy by Colby equation; conditions: for Mortality: mean mortality after 96 hours, substance and dose g a.i./ha per treatment number of Table 5B
Experimental: (§1) Ratios of bifenthrin to chlorantraniliprole were evaluated on various crops and target pests as indicated in the protocol disclosed Table 5A below where “Lab.” Refers to laboratory, “No. of Treat.” refers to number of treatments, and Total refers to the total number of insects tested. In each evaluation, foliar application was done, the insecticide action was contact/ingestion and 32 insects were evaluated in each treatment.
(§2) The treatment schedule shown in Table 5B was used where “dose” refers to application rate, “ratio” refers to the ratio of bifenthrin to chlorantraniliprole on an a.i. basis.
(§3) Treatments were applied inside a sprayer chamber simulating a volume of 200 l/ha over soybean plants. After a drying period, treated leaves were removed from the plants and placed inside 16 well trays containing agar solution (2%) covered with filter paper. Two 16 well trays were prepared for each treatment (32 larvae/treatment). One 3rd instar larva from laboratory strains was placed in each well over the treated leaf. Trays were kept under controlled conditions of 25° C., photoperiod of 14:10 hours, and 60% RH. Morality was evaluated after 96 hours. Mortality is defined as dead and moribund larvae.
(§4) Synergy or antagonism was determined using the Colby Equation where: […]
(§5) X is the observed result for compound A at p grams a.e./ha. Y is the observed result for compound B at q grams a.e./ha. E is the expected result for a mixture of A and B at (p+q) g a.i./ha if there is no synergy or antagonism. If the observed value for the combination of A and B is greater than E (Obs>E) then synergy is indicated. If the observed value for the combination of A and B is less than E (Obs<E) then antagonism is indicated.
Morality on H. armigera was evaluated according to protocol B (refer to Table 5B) using treatment numbers 5.1 to 5.13 (refer to Table 5B).

[2] = test system: E. heros 3rd instar nymphs; assay: Example 5D, protocol C: mortality on sprayed soybean plants after 72 hours, synergy by Colby equation; conditions: for Mortality: E. heros 3rd instar nymphs, sprayed soybean plants (V2), after 72 hours, Table 5G
Experimental: as §1, §2, §4, §5
(§6) Morality on E. heros was evaluated according to protocols C and D (refer to Table 5B). In the evaluation method, insecticides (treatment numbers 5.1, 5.3, 5.5 to 5.8 and 5.10 to 5.13 (refer to Table 5B)) were applied over soybean plants at V2 stage inside a spray chamber. After a drying period, a first portion of the plants were infested with 10 3rd instar nymphs of E. heros per plant, with three repetitions per treatment with a total of 30 nymphs per treatment. After the drying period, a second portion of the plants were infested with 10 adults of E. heros per plant, with three repetitions per treatment with a total of 30 adults per treatment. Infested plants were maintained in a greenhouse controlled at a temperature of 26° C. Mortality was evaluated after 72 hours. The results are reported in Tables 5G (nymphs) and 5H (adults).

[3] = test system: C. includens; assay: Example 5A, protocol A: mortality on treated leaves, synergy by Colby equation; conditions: for Mortality: mean mortality after 96 hours, substance and dose g a.i./ha per treatment number of Table 5B
Experimental: as §1, §2, §3, §4, §5
Morality on C. includens was evaluated according to protocol A (refer to Table 5B) using treatment numbers 5.1, 5.3, 5.5 to 5.8 and 5.10 to 5.13 (refer to Table 5B). The results are reported in Table 5C below where mortality is the mean mortality, the E value was calculated by the Colby equation, and the synergy value is determined by dividing the mean mortality (%) by the expected value (E).

[4] = test system: D. melachantus 3rd instar nymphs; assay: Example 5E, protocol E: mortality on sprayed plants after 72 hours, synergy by Colby equation; parameters: Mortality: concentration or dose not given beside the values; conditions: for Mortality: D. melachantus nymphs, sprayed plants, after 72 hours, Table 5I
Experimental: as §1, §2, §4, §5, §6
(§7) Morality on D. melachantus was evaluated according to protocols E and F (refer to Table 5B). In the evaluation method, insecticides (treatment numbers 5.1, 5.3, 5.5 to 5.8 and 5.10 to 5.13 (refer to Table 5B)). Evaluation was done according to the method of Example 5D. The results are reported in Tables 5I (nymphs) and 5J (adults).

[5] = test system: E. heros adults; assay: Example 5D, protocol D: mortality on sprayed soybean plants after 72 hours, synergy by Colby equation; parameters: concentration or dose not given beside the values; conditions: sprayed soybean plants (V2), Table 5H
Experimental: as §1, §2, §4, §5, §6

[6] = test system: D. melachantus adults; assay: Example 5E, protocol F: mortality on sprayed plants after 72 hours, synergy by Colby equation; parameters: concentration or dose not given beside the values; conditions: Table 5J
Experimental: as §1, §2, §4, §5, §6, §7

[7] = test system: S. frugiperda field strain; assay: Example 5C, protocol H: mortality on treated leaves, synergy by Colby equation; conditions: for Mortality: field strain, 96 hours, substance and dose g a.i./ha per treatment number of Table 5B
Experimental: as §1, §2, §3, §4, §5
(§8) Morality on S. frugiperda was evaluated according to protocols G and H (refer to Table 5B), but where two S. frugiperda strains were tested: a laboratory strain (susceptible) and a field strain in F3 generation sampled in the 2018/2019 season in Sinop-MT region using treatment numbers 5.1 to 5.10 (refer to Table 5B). The results are reported in Tables 5E (Laboratory Strain) and 5F (Filed Strain).

[8] = test system: S. frugiperda laboratory strain (susceptible); assay: Example 5C, protocol G: mortality on treated leaves, synergy by Colby equation; conditions: 96 hours, substance and dose g a.i./ha per treatment number of Table 5B
Experimental: as §1, §2, §3, §4, §5, §8

CNC(=O)c1cc(Cl)cc(C)c1NC(=O)c1cc(Br)nn1-c1ncccc1Cl [Chlorantraniliprole, 5-bromo-N-[4-chloro-2-methyl-6-(methylcarbamoyl)phenyl]-2-(3-chloropyridin-2-yl)pyrazole-3-carboxamide]
H. armigera control, in words ([1]; 7.5 g a.i./ha): most effective | control of E. heros, in words ([2]; nymphs and adults (protocols C and D)): did not control | control of C. includens, in words ([3]; 7.5 g a.i./ha): most effective | control of D. melacanthus, in words ([4]; nymphs and adults (protocols E and F)): did not control

Cc1c(COC(=O)[C@@H]2[C@H](/C=C(\Cl)C(F)(F)F)C2(C)C)cccc1-c1ccccc1 (racemic) [Treatment 5.6, Bifenthrin]
Mortality ([1]; listed as 5.6): 0% | Mortality ([5]; listed as 5.6): 30.0% | Mortality ([2]; listed as 5.6): 43.3% | Mortality ([6]; listed as 5.6): 70.0% | Mortality ([3]; listed as 5.6): 68.8% | Mortality ([4]; listed as 5.6): 70.0% | Mortality ([7]; listed as 5.6): 15.6% | Mortality ([8]; listed as 5.6): 78.1%

Cc1c(COC(=O)[C@@H]2[C@H](/C=C(\Cl)C(F)(F)F)C2(C)C)cccc1-c1ccccc1 (racemic) [Treatment 5.5, Bifenthrin]
Mortality ([1]; listed as 5.5): 0% | Mortality ([5]; listed as 5.5): 3.3% | Mortality ([2]; listed as 5.5): 38.9% | Mortality ([6]; listed as 5.5): 39.3% | Mortality ([3]; listed as 5.5): 34.4% | Mortality ([4]; listed as 5.5): 56.7% | Mortality ([7]; listed as 5.5): 3.1% | Mortality ([8]; listed as 5.5): 53.1%

Cc1c(COC(=O)[C@@H]2[C@H](/C=C(\Cl)C(F)(F)F)C2(C)C)cccc1-c1ccccc1 (racemic) [Treatment 5.8, Bifenthrin]
Mortality ([1]; listed as 5.8): 9.4% | Mortality ([5]; listed as 5.8): 80.0% | Mortality ([2]; listed as 5.8): 85.2% | Mortality ([6]; listed as 5.8): 100% | Mortality ([3]; listed as 5.8): 78.1% | Mortality ([4]; listed as 5.8): 100% | Mortality ([7]; listed as 5.8): 43.8% | Mortality ([8]; listed as 5.8): 93.8%

CNC(=O)c1cc(Cl)cc(C)c1NC(=O)c1cc(Br)nn1-c1ncccc1Cl [Treatment 5.3, Chlorantraniliprole]
Mortality ([1]; listed as 5.3): 100% | Mortality [5]: 3.3% | Mortality [2]: 0% | Mortality [6]: 0% | Mortality [3]: 100% | Mortality [4]: 7.0% | Mortality ([7]; listed as 5.3): 59.4% | Mortality ([8]; listed as 5.3): 100%

Cc1c(COC(=O)[C@@H]2[C@H](/C=C(\Cl)C(F)(F)F)C2(C)C)cccc1-c1ccccc1 (racemic) [Treatment 5.7, Bifenthrin]
Mortality ([1]; listed as 5.7): 0% | Mortality ([5]; listed as 5.7): 56.7% | Mortality ([2]; listed as 5.7): 76.7% | Mortality ([6]; listed as 5.7): 100% | Mortality ([3]; listed as 5.7): 78.1% | Mortality ([4]; listed as 5.7): 100% | Mortality ([7]; listed as 5.7): 43.8% | Mortality ([8]; listed as 5.7): 96.9%

Cc1c(COC(=O)[C@@H]2[C@H](/C=C(\Cl)C(F)(F)F)C2(C)C)cccc1-c1ccccc1 (racemic) [Bifenthrin, 2-methylbiphenyl-3-ylmethyl (Z)-(1RS)-cis-3-(2-chloro-3,3,3-trifluoroprop-1-enyl)-2,2-dimethyl cyclopropanecarboxylate]
H. armigera control, in words ([1]; even at a higher dose of 60 g a.i./ha, resistance to pyrethroids): lower control | control of S. frugiperda, in words ([7]; lower doses, especially on the field strain): lower control

Cc1c(COC(=O)[C@@H]2[C@H](/C=C(\Cl)C(F)(F)F)C2(C)C)cccc1-c1ccccc1 (racemic) [Treatment 5.4, Bifenthrin]
Mortality ([1]; listed as 5.4): 0% | Mortality ([7]; listed as 5.4): 3.1% | Mortality ([8]; listed as 5.4): 34.4%

CNC(=O)c1cc(Cl)cc(C)c1NC(=O)c1cc(Br)nn1-c1ncccc1Cl [Treatment 5.2, Chlorantraniliprole]
Mortality ([1]; listed as 5.2): 84.4% | Mortality ([7]; listed as 5.2): 40.6% | Mortality ([8]; listed as 5.2): 96.9%
